Reference: patent publication EP1388586A2, “Identification of broadly reactive DR restricted epitopes” (priority 1998, dated 1999)
Where two headings read alike, the source gives them in different places. Ends that are not written are not given here.

Tests used:
DRB1*0802 (DR8w2) = biological target: T1, DRB1*0802 (DR8w2) (Homo sapiens, UniProt P01903+P01911, A100R/A103L/A169T/F76Y/H45Y/I96F/K41T/L162R/M171V/P40S/Q125H/Q178H/Q39Y/Q99D/R218S/R42G/S66Y/V115G/W38E); assay: Class II peptide-binding assay, DR8w2
T1 construct: used as sources of human HLA class II molecules; endogenous in cells; host or cells: OLL (EBV-transformed homozygous B cell line)
Protocol: (§1) Class II peptide-binding assays. […] These assays were chosen as to be representative of the most common DR alleles.
(§2) Radiolabeled peptides were iodinated using the chloramine-T method. […] In appropriate stoichiometric conditions, the IC50 of an unlabeled test peptide to the purified DR is a reasonable approximation of the affinity of interaction (Kd). Peptides were tested in two to four completely independent experiments. […] Final detergent concentration in the incubation mixture was 0.05% Nonidet P-40. Assays were performed at pH 7.0 with the exception of DR3, which was performed at pH 4.5, and DRw53, which was performed at pH 5.0.
(§3) All subsequent inhibition and direct binding assays were the performed using these class II concentrations.
DR8w2 and DR8w3. The β1 specificity of the DR8w2 and DR8w3 assays is obvious in that no β3 (and/or B4 and β5) molecule is expressed.

DRB1*1501 (DR2w2b) = biological target: T2, DRB1*1501 (DR2w2b) (Homo sapiens, UniProt P01903+P01911); assay: Class II peptide-binding assay, DR2w2b (DR2w2B1)
T2 construct: expressed in transfected cells; host or cells: L466.1 transfected fibroblasts
Protocol: as §1
(§4) In appropriate stoichiometric conditions, the IC50 of an unlabeled test peptide to the purified DR is a reasonable approximation of the affinity of interaction (Kd). Peptides were tested in two to four completely independent experiments. […] Final detergent concentration in the incubation mixture was 0.05% Nonidet P-40. Assays were performed at pH 7.0 with the exception of DR3, which was performed at pH 4.5, and DRw53, which was performed at pH 5.0.
as §3

DRB1*1101 (DR5w11) = biological target: T3, DRB1*1101 (DR5w11) (Homo sapiens, UniProt P01903+P01911, A100R/A169T/A87E/I96F/K41T/L162R/M171V/P40S/Q125H/Q178H/Q39Y/Q99D/R42S/S66Y/T262R/V115G/W38E); assay: Class II peptide-binding assay, DR5w11;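 further: competition by unlabeled test peptide against iodinated probe peptide binding to affinity-purified HLA-DR, class II amount titrated beforehand, half-maximal inhibitory concentration read as approximate Kd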
T3 construct: used as sources of human HLA class II molecules; endogenous in cells; host or cells: SWEIG (EBV-transformed homozygous B cell line)

DRB5*0101 (DR2w2a) = biological target: T4, DRB5*0101 (DR2w2a) (Homo sapiens, UniProt P01903+Q30154); assay: Class II peptide-binding assay, DR2w2a (DR2w2B2);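 further: competitive binding assay: unlabeled peptide inhibiting binding of a radiolabeled probe peptide to purified DR molecules at pH 7.0, IC50 approximating Kd, lower means stronger binding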
T4 construct: used as sources of human HLA class II molecules; endogenous in cells; host or cells: GM3107 (EBV-transformed homozygous B cell line)

DRB1*0101 (DR1) = biological target: T5, DRB1*0101 (DR1) (Homo sapiens, UniProt P01903+P01911, A100R/D57E/F55L/F60I/F76Y/I96L/L162R/M171V/P40L/Q125E/R42F/V115G/Y59C); assay: Class II peptide-binding assay, DR1;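 further: competition assay: unlabeled test peptides inhibit binding of a radiolabeled probe peptide to purified DR, with half-maximal inhibition taken as an approximate dissociation constant Kd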
T5 construct: used as sources of human HLA class II molecules; endogenous in cells; host or cells: LG2 (EBV-transformed homozygous B cell line)

DRB1*0701 (DR7) = DRB1*0701 (DR7) (Homo sapiens, UniProt P01903+P01911, A100R/A102G/A103Q/D57E/D86V/E43K/F76Y/K127E/L162R/M171V/P40G/Q125H/Q99D/R33Q/R42Y/R54Q/S133A/S66F/T210M/V115G/Y107V/Y59L/Y89S); assay: Class II peptide-binding assay, DR7;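 further: unlabeled peptides compete with an iodinated probe peptide for binding to affinity-purified HLA-DR at neutral pH, DR amount titered to bind a small tracer fraction, IC50 approximating Kd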
DRB1*1302 (DR6w19) = DRB1*1302 (DR6w19) (Homo sapiens, UniProt P01903+P01911, A100E/A169T/K41T/L162R/M171V/P40S/Q125H/Q178H/Q39Y/Q99D/R42S/S66N/T262R/V115G/W38E/Y61H); format: binding; conditions: read-out: In IC50 Format DR6w19 nM; Table VIII; values in parentheses read as lower bounds
Protocol: The lysates were cleared of debris and nuclei by centrifugation at 10,000 x g for 20 min.
Affinity purification of HLA-DR molecules.
as §1, §2, §3
DR6w19. The DR6w19 assay utilizes as the source of class II molecules the EBV transformed homozygous cell line H0301, which co-expresses DRB30301 (DR52a). While the radiolabeled ligand used in the DR6w19 assay is different than that used for the DR52a assay, the ligand is related (i.e., is a single substitution analog) to a high affinity DR52a binder. As was done in the case of DR4w15, the specificity of the assay was investigated by analyzing the binding capacity of a panel of naturally occurring peptides for DR6w19 and DR52a.

DRB1*0901 (DR9) = biological target: T6, DRB1*0901 (DR9) (Homo sapiens, UniProt P01903+P01911, A100R/A103E/D57H/D86V/F55Y/F60I/F76Y/I96F/K127E/L162R/M171V/P40D/Q125H/Q99R/R33Q/R42F/S133A/S66N/T210M/V115G/W38K/Y107V/Y59G/Y89S); assay: Class II peptide-binding assay, DR9; conditions: Table V A) Non Predictions; read-out: Binding Capacity DR9
T6 construct: used as sources of human HLA class II molecules; endogenous in cells; host or cells: HTC9074 (EBV-transformed homozygous B cell line); gift of Dr. Paul Harris
Protocol: as §1, §4, §3

DRB1*0405 (DR4w15) = DRB1*0405 (DR4w15) (Homo sapiens, UniProt P01903+P01911, A100R/A169T/D86S/F76Y/I96L/K127E/L162R/M171V/N62H/P40V/Q125Y/R42H/S133A/S149N/S66Y/V115G/V209L/W38E); assay: Class II peptide-binding assay, DR4w15; conditions: Table V A) Non Predictions; read-out: Binding Capacity DR4w15
Protocol: as §1, §2, §3
DR4w15. The β4 product DRw53 is co-expressed with DR4w15 and the determination of the specificity of the DR4w1 binding assay is complicated in that the same radiolabeled ligand is used for both the DR4w15 and DRw53 binding assays.

DRB1*0401 (DR4w4) = biological target: T7, DRB1*0401 (DR4w4) (Homo sapiens, UniProt P01903+P01911, A100K/A169T/F76Y/I96L/K127E/L162R/M171V/N62H/P40V/Q125Y/R42H/S133A/S149N/S66Y/V115G/V209L/W38E); assay: Class II peptide-binding assay, DR4w4;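 further: unlabeled test peptides compete with a radiolabeled probe peptide for binding to affinity-purified HLA-DR, with DR amount titrated to capture a small fraction of label, IC50 approximating Kd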
T7 construct: used as sources of human HLA class II molecules; endogenous in cells; host or cells: PREISS (EBV-transformed homozygous B cell line)

[1] = test system: panel of purified HLA DR molecules; format: binding, human;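 further: competitive inhibition of radiolabeled probe peptide binding to purified HLA DR molecules, with inhibitory potency of unlabeled peptides taken as an approximation of affinity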
Protocol: as §1, §2, §3

DRB4*0101 (DRw53) = biological target: T8, DRB4*0101 (DRw53) (Homo sapiens, UniProt P01903+P13762, G164S); format: binding; conditions: read-out: DRw53 nM (In IC50 Format)
T8 construct: expressed in transfected cells; host or cells: L257.6 transfected fibroblasts
Protocol: as §1, §2, §3

DRB10404 (DR4w14) = biological target: T9, DRB10404 (DR4w14) (Homo sapiens, UniProt P01903+P01911, A100R/A169T/F76Y/I96L/K127E/L162R/M171V/N62H/P40V/Q125Y/R42H/S133A/S149N/S66Y/V209L/W38E); assay: Class II peptide-binding assay, DR4w14; conditions: read-out: DR4w14 nM (In IC50 Format); purified HLA DR4w14;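 further: unlabeled peptides compete with a radiolabeled probe for binding to affinity-purified HLA-DR, neutral pH, class II amount titrated to bind a small fraction of label, IC50 approximates Kd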
T9 construct: used as sources of human HLA class II molecules; endogenous in cells; host or cells: BIN40 (EBV-transformed homozygous B cell line)

[2] = read-out: In IC50 Format DR8w2 nM, Table VIII, values in parentheses read as lower bounds
[3] = read-out: In IC50 Format DR2w2B1 nM, Table VIII, values in parentheses read as lower bounds
[4] = read-out: In IC50 Format DR5w11 nM, Table VIII, values in parentheses read as lower bounds
[5] = read-out: In IC50 Format DR2w2B2 nM, Table VIII, values in parentheses read as lower bounds
[6] = read-out: In IC50 Format DR1 nM, Table VIII, values in parentheses read as lower bounds
[7] = read-out: In IC50 Format DR7 nM, Table VIII, values in parentheses read as lower bounds

T3 sequence (P01903 26-254, other chains not shown): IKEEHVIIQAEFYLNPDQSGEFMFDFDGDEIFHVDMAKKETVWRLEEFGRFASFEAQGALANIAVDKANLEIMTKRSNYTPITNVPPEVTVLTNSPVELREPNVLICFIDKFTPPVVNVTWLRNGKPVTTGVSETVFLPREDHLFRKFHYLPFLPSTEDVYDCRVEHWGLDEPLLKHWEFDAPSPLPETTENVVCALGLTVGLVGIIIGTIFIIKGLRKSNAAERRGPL
Sequence of DRB1*1302 (DR6w19) (P01903 26-254, other chains not shown): as above

| Compound | IC50 (DRB1*0802 (DR8w2); [2]) | IC50 (DRB1*1501 (DR2w2b); [3]) | IC50 (DRB1*1101 (DR5w11); [4]) | IC50 (DRB5*0101 (DR2w2a); [5]) | IC50 (DRB1*0101 (DR1); [6]) | IC50 (DRB1*0701 (DR7); [7]) | IC50 (DRB1*1302 (DR6w19)) | also measured |
| --- | --- | --- | --- | --- | --- | --- | --- | --- |
| CC(C)C[C@H](NC(=O)[C@H](C)NC(=O)[C@H](CCC(N)=O)NC(=O)[C@H](Cc1c[nH]cn1)NC(=O)[C@@H]1CCCN1C(=O)[C@H](CC(N)=O)NC(=O)[C@H](CCCNC(=N)N)NC(=O)[C@H](Cc1ccccc1)NC(=O)[C@H](CC(C)C)NC(=O)[C@H](CCC(N)=O)NC(=O)[C@H](CC(=O)O)NC(=O)[C@@H](N)Cc1c[nH]c2ccccc12)C(=O)N[C@@H](CC(C)C)C(=O)N[C@@H](Cc1c[nH]cn1)C(=O)N[C@H](C(=O)O)[C@@H](C)O [Peptide 39.0354] | > 54400 nM | 6070 nM | > 25000 nM | > 28600 nM | > 50000 nM | > 14700 nM | – | – |
| CC[C@H](C)[C@H](NC(=O)[C@H](CC(C)C)NC(=O)[C@H](C)NC(=O)[C@@H](N)CC(C)C)C(=O)N[C@@H](Cc1c[nH]cn1)C(=O)N[C@@H](Cc1c[nH]cn1)C(=O)N[C@@H](CC(N)=O)C(=O)N[C@H](C(=O)N[C@@H](Cc1c[nH]cn1)C(=O)N[C@@H](CC(C)C)C(=O)N[C@@H](CS)C(=O)N[C@@H](Cc1ccccc1)C(=O)N[C@H](C(=O)N[C@@H](Cc1c[nH]cn1)C(=O)N[C@H](C(=O)O)[C@@H](C)O)C(C)C)[C@@H](C)O [Peptide 39.0352] | 1480 nM | 91.9 nM | 8000 nM | – | – | 1250 nM | 4.7 nM | – |
| LFHYYFLSEKAPGSTV [Peptide 1136.04] | – | – | – | – | – | – | – | IC50 (DRB1*0901 (DR9)): 2880 nM; IC50 (DRB1*0405 (DR4w15)): 563 nM; IC50 (DRB1*0802 (DR8w2); Table V A) Non Predictions, read-out: Binding Capacity DR8w2): 55 nM; IC50 (DRB1*1501 (DR2w2b); Table V A) Non Predictions, read-out: Binding Capacity DR2w2b): 1260 nM; IC50 (DRB1*0401 (DR4w4); Table V A) Non Predictions, read-out: Binding Capacity DR4w4): 20 nM; IC50 (DRB1*1101 (DR5w11); Table V A) Non Predictions, read-out: Binding Capacity DR5w11): 69 nM; IC50 (DRB1*0101 (DR1); Table V A) Non Predictions, read-out: Binding Capacity DR1): 24 nM; additional DR types bound ([1]; "non-predictions" peptides, beyond DR1, 4w4 or 7): DR2w2 β2, DR4w15, 5w11 and 8w2; Total Alleles Bound ([1]; Table V A) Non Predictions, 12 DR molecules listed): 6; IC50 (DRB1*0701 (DR7); Table V A) Non Predictions, read-out: Binding Capacity DR7): 3330 nM |
| YARFQRQTTLKAAA-NH2 [Peptide 717.10] | – | – | – | – | – | – | – | IC50 (DRB4*0101 (DRw53)): 6.5 nM; IC50 (DRB1*0401 (DR4w4); read-out: DR4w4 nM (In IC50 Format), purified HLA DR4w4): 5.6 nM; IC50 (DRB1*1101 (DR5w11); read-out: DR5w11 nM (In IC50 Format), purified HLA DR5w11): 8.7 nM; IC50 (DRB10404 (DR4w14)): 12.8 nM; IC50 (DRB5*0101 (DR2w2a); read-out: DR2w2B2 nM (In IC50 Format), purified HLA DR2w2β2): 55.6 nM; IC50 (DRB1*0101 (DR1); read-out: DR1 nM (In IC50 Format), purified HLA DR1): 2.9 nM; IC50 (DRB1*0701 (DR7); read-out: DR7 nM (In IC50 Format), purified HLA DR7): 3570 nM |
| ARLLDIDETEYHADG [Peptide 39.0366] | > 54400 nM | > 15200 nM | > 25000 nM | > 28600 nM | 50000 nM | > 14700 nM | > 35000 nM | – |
